# Reference: patent US20200392084A1 (priority 2017, published 2020)
# “Also recorded” adds a separate entry of the source. Read-outs that look alike come from different tables or passages of the source.
# Tests used:
# [1] = Forced degradation studies (Example 7)
# [2] = slurried in deionised water, ambient temperature, ca. 24 hrs
# [3] = at 90% RH, 25° C.; listed as salt from diethylamine
# [4] = H2O/acetone, ca. 12 hrs
# [5] = Hydrolytic (humidity), 55° C./75% RH, solid state, 8 days
# [6] = Hydrolytic (humidity), 55° C./75% RH, solid state, 14 days
# [7] = Hydrolytic, Acid, 1N HCl, 55° C., 8 days
# [8] = Hydrolytic, Acid, 1N HCl, 55° C., 14 days
# [9] = Hydrolytic, Base, 1N NaOH, 55° C., 8 days
# [10] = Hydrolytic, Base, 1N NaOH, 55° C., 14 days
# [11] = Oxidative, 3% H2O2, ambient temperature, 8 days
# [12] = Photolytic Control (dark control in photochamber), 2X ICH
# [13] = Photolytic Control (dark control in photochamber), 3X ICH
# [14] = Photolytic, photochamber 25° C., solid state, 2X ICH
# [15] = Photolytic, photochamber 25° C., solid state, 3X ICH
# [16] = Solution Control (water, 55° C.), 8 days
# [17] = Solution Control (water, 55° C.), 14 days
# [18] = Solution Control (water, ambient), 8 days
# [19] = Solution Control (water, ambient), 14 days
# [20] = Thermolytic, 85° C., ambient humidity, solid state, 8 days
# [21] = Thermolytic, 85° C., ambient humidity, solid state, 14 days
substance,measurement,setting,value
sulfasalazine diethylamine (1:1) salt [Diethylamine Salt],% Change,[1]; [5],0.11%
same,Area % (main band),[1]; [5],98.97%
same,% Change,[1]; [6],−0.02%
same,Area % (main band),[1]; [6],99.10%
same,degradation observed,"[1]; Hydrolytic (humidity), 75% RH, 55° C., 14 days",Minimal degradation
same,Peak Purity,"[1]; Hydrolytic (humidity), 14 days",Pass
same,% Change,[1]; [7],−0.19%
same,Area % (main band),[1]; [7],99.03%
same,% Change,[1]; [8],−0.25%
same,Area % (main band),[1]; [8],98.93%
same,degradation observed,[1]; [8],Minimal degradation
same,Peak Purity,"[1]; Hydrolytic, Acid, 14 days",Pass
same,% Change,[1]; [9],−0.19%
same,Area % (main band),[1]; [9],99.03%
same,% Change,[1]; [10],−0.25%
same,Area % (main band),[1]; [10],98.93%
same,degradation observed,[1]; [10],Minimal degradation
same,Peak Purity,"[1]; Hydrolytic, Base, 14 days",Pass
same,% Change,[1]; [11],1.36%
same,Area % (main band),[1]; [11],97.52%
same,Area % (main band),"[1]; Oxidative, 3% H2O2, ambient temperature, 14 days",97.30%
same,Peak Purity,"[1]; Oxidative, 14 days",Pass
same,% Change,[1]; [12],−0.05%
same,Area % (main band),[1]; [12],99.13%
same,% Change,[1]; [13],−0.05%
same,Area % (main band),[1]; [13],99.13%
same,Peak Purity,"[1]; Photolytic, 3X ICH",Pass
same,degradation observed,"[1]; Photolytic, 3× ICH exposure",Minimal degradation
same,% Change,[1]; [14],0.42%
same,Area % (main band),[1]; [14],98.71%
same,% Change,[1]; [15],0.10%
same,Area % (main band),[1]; [15],99.03%
same,Area % (main band),"[1]; Solid Control (unstressed), 0 days",99.08%
same,% Change,[1]; [16],0.24%
same,Area % (main band),[1]; [16],98.84%
same,% Change,[1]; [17],0.39%
same,Area % (main band),[1]; [17],98.69%
same,% Change,[1]; [18],0.20%
same,Area % (main band),[1]; [18],98.88%
same,% Change,[1]; [19],0.20%
same,Area % (main band),[1]; [19],98.88%
same,degradation observed,"[1]; Thermolytic, 80° C., 14 days",Minimal degradation
same,% Change,[1]; [20],0.12%
same,Area % (main band),[1]; [20],98.96%
same,% Change,[1]; [21],0.05%
same,Area % (main band),[1]; [21],99.03%
same,Peak Purity,"[1]; Thermolytic, 14 days",Pass
same,"Salt disproportionation, XRPD",[2],Small change
same,DVS mass uptake,[3],1.0%
same,"Hydration studies, XRPD",[4]; High water activity (0.790),no solid could be obtained
same,"Hydration studies, XRPD",[4]; Low water activity (0.281),slight changes; also recorded: Small change
same,"Hydration studies, XRPD",[4]; Medium water activity (0.572),slight changes; also recorded: Small change
